Earlier results as cited in PMC6525002 (Cancer Management and Research, 2019).

Key:
[1] = system: patients with NSCLC; conditions: clinical trials; cited from earlier work
[2] = system: NSCLC patients with EGFR mutations; conditions: cited from earlier work
[3] = cited from earlier work

Structure (SMILES) | frequency of diarrhea [1] | response rates on brain metastases [2] | time to Cmax ([3]; cancer patients, post-dose) | inter-patient variability of exposure ([3]; post single-dose exposure)
CN(C)C/C=C/C(=O)Nc1cc2c(Nc3ccc(F)c(Cl)c3)ncnc2cc1O[C@H]1CCOC1 [afitinib] | 87.0% |  |  | 
C#Cc1cccc(Nc2ncnc3cc(OCCOC)c(OCCOC)cc23)c1 [erlotinib] | 40.0–67.9% | 60–80% |  | 
COc1cc2ncnc(Nc3ccc(F)c(Cl)c3)c2cc1OCCCN1CCOCC1 [gefitinib] |  |  | 3 h | 1.5 fold
